How the values were obtained:
Assay type in all cases: cell-based, human
PC-3 = assay: NCI 60 panel growth inhibition (SRB), prostate cancer; conditions: PC-3, 10 μM
Experimental: (§1) Screening of cytotoxic activity against a panel of sixty human tumor cell lines The selected compounds by NCI were evaluated for their anticancer activity in a two- stage process. […] Then, the output from the single dose screen is reported as a mean graph. […] Assay protocol. […] For a typical screening experiment, cells are inoculated into 96 well microtiter plates in 100 µL at plating densities ranging from 5000 to 40,000 cells/well depending on the doubling time of individual cell lines. […] After 24 h, two plates of each cell line are fixed in situ with TCA, to represent a measurement of the cell population for each cell line at the time of drug addition (Tz). The experimental drugs are solubilized in dimethyl sulfoxide at 400-fold the desired final maximum test concentration and stored frozen prior to use. At the time of drug addition, an aliquot of frozen concentrate is thawed and diluted to twice the desired final maximum test concentration with complete medium containing 50 µg/mL gentamicin. Additional four, 10-fold or ½ log serial dilutions are made to provide a total of five drug concentrations plus control. […] For adherent cells, the assay is terminated by the addition of cold TCA. […] The supernatant is discarded, and the plates are washed five times with tap water and air dried. […] Using the seven absorbance measurements [time zero, (Tz), control growth, (C), and test growth in the presence of drug at the five concentration levels (Ti)], the percentage growth is calculated at each of the drug concentrations levels. Percentage growth inhibition is calculated as: [(Ti Tz)/(C–Tz)] x 100 for concentrations for which Ti>/=Tz and [(Ti-Tz)/Tz] x 100 for concentrations for which Ti < Tz. Three dose response parameters are calculated for each experimental agent. […] The drug concentration resulting in total growth inhibition (TGI) is calculated from Ti = Tz. […] Values are calculated for each of these three parameters if the level of activity is reached; however, if the effect is not reached or is exceeded, the value for that parameter is expressed as greater or less than the maximum or minimum concentration tested.

DU-145 = assay: as above; conditions: DU-145, 10 μM
Experimental: as §1

SN12C = assay: NCI 60 panel growth inhibition (SRB), renal cancer; conditions: 10 μM
Experimental: as §1

TK-10 = assay: NCI 60 panel growth inhibition (SRB), renal cancer; conditions: TK-10, 10 μM
Experimental: as §1

ACHN = assay: NCI 60 panel growth inhibition (SRB), renal cancer; conditions: 10 μM
Experimental: as §1

UO-31 = assay: NCI 60 panel growth inhibition (SRB), renal cancer; conditions: UO-31, 10 μM
Experimental: as §1

786-0 = assay: NCI 60 panel growth inhibition (SRB), renal cancer; conditions: 786-0, 10 μM
Experimental: as §1

RXF 393 = assay: NCI 60 panel growth inhibition (SRB), renal cancer; conditions: RXF 393, 10 μM
Experimental: as §1

CAKI-1 = assay: NCI 60 panel growth inhibition (SRB), renal cancer; conditions: CAKI-1, 10 μM
Experimental: as §1

A498 = assay: NCI 60 panel growth inhibition (SRB), renal cancer; conditions: A498, 10 μM
Experimental: as §1

HL-60(TB) = assay: NCI 60 panel growth inhibition (SRB), leukemia; conditions: HL-60(TB), 10 μM
Experimental: as §1

K-562 = assay: NCI 60 panel growth inhibition (SRB), leukemia; conditions: K-562, 10 μM
Experimental: as §1

CCRF-CEM = assay: NCI 60 panel growth inhibition (SRB), leukemia; conditions: 10 μM
Experimental: as §1

SR = assay: NCI 60 panel growth inhibition (SRB), leukemia; conditions: 10 μM
Experimental: as §1

RPMI-8226 = assay: NCI 60 panel growth inhibition (SRB), leukemia; conditions: RPMI-8226, 10 μM
Experimental: as §1

MOLT-4 = assay: NCI 60 panel growth inhibition (SRB), leukemia; conditions: MOLT-4, 10 μM
Experimental: as §1

MDA-MB-435 = assay: NCI 60 panel growth inhibition (SRB), melanoma; conditions: MDA-MB-435, 10 μM
Experimental: as §1

UACC-257 = assay: NCI 60 panel growth inhibition (SRB), melanoma; conditions: UACC-257, 10 μM
Experimental: as §1

UACC-62 = assay: NCI 60 panel growth inhibition (SRB), melanoma; conditions: UACC-62, 10 μM
Experimental: as §1

SK-MEL-28 = assay: NCI 60 panel growth inhibition (SRB), melanoma; conditions: SK-MEL-28, 10 μM
Experimental: as §1

MALME-3M = assay: NCI 60 panel growth inhibition (SRB), melanoma; conditions: 10 μM
Experimental: as §1

SK-MEL-5 = assay: NCI 60 panel growth inhibition (SRB), melanoma; conditions: SK-MEL-5, 10 μM
Experimental: as §1

M14 = assay: NCI 60 panel growth inhibition (SRB), melanoma; conditions: M14, 10 μM
Experimental: as §1

LOX IMVI = assay: NCI 60 panel growth inhibition (SRB), melanoma; conditions: 10 μM
Experimental: as §1

HCT-15 = assay: NCI 60 panel growth inhibition (SRB), colon cancer; conditions: HCT-15, 10 μM
How it was run: (§2)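 Percent growth per concentration, normalised to Tz and control wells, yields three dose-response parameters including TGI (Ti = Tz). Where activity is not reached or is exceeded, the value is reported as greater or less than the tested extreme.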

COLO 205 = assay: NCI 60 panel growth inhibition (SRB), colon cancer; conditions: COLO 205, 10 μM
How it was run: as §2

| SMILES | GI% (PC-3) | GI% (DU-145) | GI% (SN12C) | GI% (TK-10) | GI% (ACHN) | GI% (UO-31) | GI% (786-0) | GI% (RXF 393) | GI% (CAKI-1) | GI% (A498) | GI% (HL-60(TB)) | GI% (K-562) | GI% (CCRF-CEM) | GI% (SR) | GI% (RPMI-8226) | GI% (MOLT-4) | GI% (MDA-MB-435) | GI% (UACC-257) | GI% (UACC-62) | GI% (SK-MEL-28) | other results |
| --- | --- | --- | --- | --- | --- | --- | --- | --- | --- | --- | --- | --- | --- | --- | --- | --- | --- | --- | --- | --- | --- |
| O=C(COc1ccccc1-c1nc2ccccc2s1)NN=C1C(=O)Nc2ccccc21 [Compound 9a, 2-(2-(Benzo[d]thiazol-2-yl)phenoxy)-N′-(2-oxoindolin-3-ylidene)acetohydrazide] | 19.26% | 6.07% | 7.64% | – (GI% < 5%) | – (GI% < 5%) | 26.54% | – (GI% < 5%) | 5.86% | 22.46% | – (GI% < 5%) | – (GI% < 5%) | – (GI% < 5%) | 20.22% | – (GI% < 5%) | 21.80% | 8.23% | – (GI% < 5%) | 6.77% | 13.82% | – (GI% < 5%) | GI% (MALME-3M): – (GI% < 5%); GI% (SK-MEL-5): 13.43%; GI% (M14): – (GI% < 5%); GI% (LOX IMVI): – (GI% < 5%); GI% (HCT-15): 8.99%; GI% (COLO 205): – (GI% < 5%) |
| COc1ccc2c(c1)C(=NNC(=O)COc1ccccc1-c1nc3ccccc3s1)C(=O)N2 [Compound 9c, 2-(2-(Benzo[d]thiazol-2-yl)phenoxy)-N′-(5-methoxy-2-oxoindolin-3-ylidene)acetohydrazide] | 43.83% | 6.75% | 12.43% | – (GI% < 5%) | 9.04% | 35.66% | 5.40% | 23.06% | 28.09% | – (GI% < 5%) | 15.59% | 30.54% | 60.17% | 20.98% | 48.87% | 47.19% | 19.69% | – (GI% < 5%) | 28.02% | – (GI% < 5%) | GI% (MALME-3M): 13.58%; GI% (SK-MEL-5): 44.97%; GI% (M14): 5.86%; GI% (LOX IMVI): 9.06%; GI% (HCT-15): 40.05%; GI% (COLO 205): – (GI% < 5%) |
| COc1cccc(-c2nc3ccccc3s2)c1OCC(=O)NN=C1C(=O)Nc2ccccc21 [Compound 9g, 2-(2-(Benzo[d]thiazol-2-yl)-6-methoxyphenoxy)-N′-(2-oxoindolin-3-ylidene)acetohydrazide] | 44.41% | – (GI% < 5%) | 18.49% | – (GI% < 5%) | 14.78% | 41.81% | – (GI% < 5%) | 35.85% | 34.75% | – (GI% < 5%) | 15.30% | 32.23% | 41.07% | 18.95% | 50.80% | 49.06% | 10.97% | – (GI% < 5%) | 46.29% | – (GI% < 5%) | GI% (MALME-3M): 13.82%; GI% (SK-MEL-5): 95.02%; GI% (M14): – (GI% < 5%); GI% (LOX IMVI): 25.54%; GI% (HCT-15): 25.54%; GI% (COLO 205): 25.08% |

From publication PMC11396129, “Oxindole–benzothiazole hybrids as CDK2 inhibitors and anticancer agents: design, synthesis and biological evaluation” (BMC Chemistry, 2024)
